# Data reported in publication PMC11921344, “Antimicrobial peptide DiPGLa-H exhibits the most outstanding anti-infective activity among the PGLa variants based on a systematic comparison” (Applied and Environmental Microbiology, 2025).
# Where two headings read alike, the source gives them in different places. Where no end group is shown, it is not given here.
# Tests used:
# [1] = test system: S. aureus ATCC29213; format: cell-based, Staphylococcus aureus
# Procedure: The antibacterial activity was evaluated using a standard MIC and MBC assay according to the National Committee for Clinical Laboratory Standards (NCCLS). MIC, MBC assay, and time-kill curves for the optimal peptide are provided in the Supplementary Materials.
# Antimicrobial Activity Assays. The antibacterial activity of the peptides was determined using a method designed from the National Committee for Clinical Laboratory Standards (NCCLS) in the United States. All the strains used in the experiment are preserved in the laboratory. Briefly, log phase bacterial cells were diluted in MHB to a final concentration of 0.5-1x10^5 CFU/mL. Subsequently, 50μL of different concentrations of polypeptides were incubated with 50 μL of bacterial solution in sterile 96-well plates. In the minimum inhibitory concentration (MIC) assay, the plate was incubated at 37°C for 24 h, and the minimum inhibitory concentration (MIC) was determined by the absorbance at 492 nm of the microplate reader, and the minimum inhibitory concentration (MIC) inhibited 95% of bacteria grow. Determination of minimum bactericidal concentration: the plate was incubated at 37°C for 4 hours, 50 μL of the mixture was taken out of each well, diluted with an appropriate amount of PBS, smeared on the agar plate, and cultured overnight. Colonies were counted and the initial CFU/well was retrospectively calculated the following day. The lowest concentration of peptide that kills 99.9% of bacterial cells is the minimum bactericidal concentration (µM), Each test was replicated at least 3 times.
# [2] = test system: S. aureus Mu50; format: cell-based, Staphylococcus aureus MRSA; conditions: for MIC S. aureus Mu50: Mu50, 2 h
# Procedure: To assess the stability of the peptides in physiological conditions, the peptides were incubated with E. coli K88 and S. aureus Mu50 in the presence of salts (150 mM NaCl, 4.5 mM KCl, 6 µM NH4Cl, 8 µM ZnCl2, 1 mM MgCl2, 4 µM FeCl3, and 2.5 µM CaCl2) in accordance with a previously reported protocol. To determine the thermal stability of the peptides, the peptides were pretreated at 100°C for 30 min, 60 min, and 90 min and cooled on ice for 10 min. The effect of acid and base on the antimicrobial activity was measured by treating the peptides for 2 h at pH of 2, 4, 10, and 12 in 10 mM sodium phosphate buffer adjusted with HCl or NaOH.
# [3] = test system: S. aureus Mu50 infection; assay: Mouse abdominal infection model; format: in vivo, C57BL/6 mice; conditions: for number of mice that survived: Mu50+DiPGLa-H
# Procedure: (§1) Six-to-eight-week-old C57BL/6 male mice were selected for the experiment and housed in cages under specific pathogen-free conditions with water and laboratory mouse chow. Each strain was divided into three groups, and each group and the second group were required to be injected intraperitoneally with a lethal amount of bacterial fluid with a working fluid concentration of 64 µg/mL of DiPGLa-H, and the third group was injected with PBS. […] Then homogenized and serially diluted with PBS to 10^7 times. 100 µL of the gradient dilution was applied to the TSA plate, which was subsequently incubated at 37°C overnight and counted the next day for survival analysis using GraphPad Prism software. The protocol and use of animals were approved by the Institutional Animal Care and Use Committee of the Northwest A&F University.
# [4] = test system: E. coli K88 infection; assay: Mouse abdominal infection model; format: in vivo, C57BL/6 mice; conditions: for number of mice that survived: K88+DiPGLa-H
# Procedure: as §1
# [5] = heart, liver, spleen, 1 day after infection, 5 mice per group
substance,measurement,setting,value
KIAKVALKALKIAKVALKAL-NH2 (C-terminus assumed) [DiPGLa-H],MBC S. aureus ATCC29213,"[1]; ATCC29213, 4 h",4 µM
same,MIC S. aureus ATCC29213,"[1]; ATCC29213, 24 h",4 µM
same,MIC S. aureus Mu50,[2]; pH 2,>32 µM
same,MIC S. aureus Mu50,[2]; pH 4,>32 µM
same,MIC S. aureus Mu50,[2]; pH 10,32 µM
same,MIC S. aureus Mu50,[2]; pH 12,32 µM
same,"increase in MIC after high temperature and pH treatments, S. aureus Mu50",[2]; heat 100°C and pH 2-12 treatments,≥ 4 fold
same,"increase in MIC values by cations, S. aureus Mu50",[2]; salts of Table S2,more than fourfold increase
same,fold higher TIall vs PGLa-B1,,64 fold
same,increase of survival rate of mice,"[3]; C57BL/6 male mice, intraperitoneal lethal Mu50, DiPGLa-H working concentration 64 µg/mL, 16 mice per group",31%
same,number of mice that survived,"[3]; day 1, of 16 mice",12
same,number of mice that survived,"[3]; day 2, of 16 mice",11
same,number of mice that survived,"[3]; day 3, of 16 mice",10
same,number of mice that survived,"[3]; day 4, of 16 mice",8
same,number of mice that survived,"[3]; day 5, of 16 mice",6
same,number of mice that survived,"[3]; day 6, of 16 mice",6
same,number of mice that survived,"[3]; day 7, of 16 mice",5
same,number of mice that survived,"[3]; day 8, of 16 mice",5
same,reduction of bacterial loads in the organs,[3]; [5],100 fold
same,number of mice that survived,"[4]; day 1, of 16 mice",13
same,number of mice that survived,"[4]; day 2, of 16 mice",12
same,number of mice that survived,"[4]; day 3, of 16 mice",10
same,number of mice that survived,"[4]; day 4, of 16 mice",9
same,number of mice that survived,"[4]; day 5, of 16 mice",9
same,number of mice that survived,"[4]; day 6, of 16 mice",9
same,number of mice that survived,"[4]; day 7, of 16 mice",9
same,number of mice that survived,"[4]; day 8, of 16 mice",9
same,reduction of bacterial loads in the organs,[4]; [5],"1,000 fold"
